In patent US9394305B2, “Substituted imidazo[1,2-a]pyridine compounds as tropomyosin receptor kinase a (TrkA) inhibitors” (Dr. Reddy's Laboratories Ltd., priority 2014, dated 2016):

target: T1, TrkA kinase (Homo sapiens, UniProt P04629); experiment: In vitro TrkA inhibitory activity using TR-FRET assay; format: biochemical; settings: 5 ng TrkA, 500 μM ATP, values given as bins, read-out: TrkA inhibition in-vitro IC50
T1 construct: purchased Upstate, USA
Procedure: Compounds were screened in the TR-FRET assay with TrkA kinase. 5 ng of TrkA [Upstate, USA] kinase was used for assay. The compound was incubated with the kinase for 30 minutes at 20-35° C. After the incubation, substrate mix [40 nM Ultra light poly GT (Perkin Elmer, USA) and 500 μM ATP] was added. The above reaction was stopped by the addition of 40 mM EDTA after 30 minutes. The Eu-labelled antiphospho-tyrosine antibody [Perkin Elmer, USA] was added at 0.5 nM and the fluorescence emission at 615 nm/665 nm [excitation at 340 nm] was measured. The compounds were initially screened at 100 nM, 1 μM and 10 μM concentrations. The potent compounds with >25% inhibition at 1 μM of TrkA were taken for the full dose response studies. The final DMSO concentration in the assay was […]. For IC50 determination, ⅓^rd serial dilution was made from the 20 mM DMSO stock solution. 2 μl of these were transferred to the test wells containing 20 μl reaction mixture [Total reaction volume 22 μl]. The fluorescence was measured in Perkin Elmer Wallac 1420 Multilabel Counter Victor 3. The IC50 was determined by fitting the dose response data to a sigmoidal curve fitting equation using GraphPad Prism software version 5.

T1 sequence (P04629 33-796): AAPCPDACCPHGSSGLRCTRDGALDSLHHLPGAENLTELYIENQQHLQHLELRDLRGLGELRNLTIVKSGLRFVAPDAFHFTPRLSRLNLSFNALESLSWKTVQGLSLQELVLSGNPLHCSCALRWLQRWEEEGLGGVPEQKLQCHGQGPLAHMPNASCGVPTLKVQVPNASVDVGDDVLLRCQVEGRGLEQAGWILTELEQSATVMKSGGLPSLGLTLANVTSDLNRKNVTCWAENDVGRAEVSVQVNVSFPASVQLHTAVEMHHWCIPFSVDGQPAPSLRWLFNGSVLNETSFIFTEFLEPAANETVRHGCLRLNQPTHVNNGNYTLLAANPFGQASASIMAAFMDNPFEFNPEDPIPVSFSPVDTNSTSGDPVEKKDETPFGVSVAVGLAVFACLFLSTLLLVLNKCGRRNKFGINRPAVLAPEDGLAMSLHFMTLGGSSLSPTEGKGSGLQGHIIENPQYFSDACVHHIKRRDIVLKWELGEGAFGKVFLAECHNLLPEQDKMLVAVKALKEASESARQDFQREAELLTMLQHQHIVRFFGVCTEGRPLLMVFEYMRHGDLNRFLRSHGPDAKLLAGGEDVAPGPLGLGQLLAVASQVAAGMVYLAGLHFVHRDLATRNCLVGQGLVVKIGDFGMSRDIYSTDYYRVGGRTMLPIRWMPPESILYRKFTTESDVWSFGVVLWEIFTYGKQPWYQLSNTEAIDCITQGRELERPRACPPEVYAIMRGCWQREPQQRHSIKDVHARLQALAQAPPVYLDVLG

IC50 [nM] | Structure (SMILES)
50 to 100 | CC(C)(C)S(=O)(=O)NC(=O)c1cnc2ccc(N3C[C@@H](F)C[C@@H]3c3cc(F)ccc3OC3CCOCC3)cn12 [Example 94, N-(tert-butylsulfonyl)-6-((2R,4S)-4-fluoro-2-(5-fluoro-2-((tetrahydro-2H-pyran-4-yl)oxy)phenyl)pyrrolidin-1-yl)imidazo[1,2-a]pyridine-3-carboxamide]
50 to 100 | CCN(C)S(=O)(=O)NC(=O)c1cnc2ccc(N3C[C@@H](F)C[C@@H]3c3cc(F)cc4c3OCCO4)cn12 [Example 68, N-(N-ethyl-N-methylsulfamoyl)-6-((2R,4S)-4-fluoro-2-(7-fluoro-2,3-dihydrobenzo[b][1,4]dioxin-5-yl)pyrrolidin-1-yl)imidazo[1,2-a]pyridine-3-carboxamide]
100 to 500 | O=C(O)CNC(=O)c1cnc2ccc(N3CCC[C@H]3c3cc(F)ccc3F)cn12 (single isomer, unassigned) [Example 19, 2-(6-(2-(2,5-difluorophenyl)pyrrolidin-1-yl)imidazo[1,2-a]pyridine-3-carboxamido)acetic acid]
≤ 50 | CN(c1nccs1)S(=O)(=O)NC(=O)c1cnc2ccc(N3C[C@@H](F)C[C@@H]3c3cc(F)ccc3OC3CCOCC3)cn12 [Example 100, 6-((2R,4S)-4-fluoro-2-(5-fluoro-2-((tetrahydro-2H-pyran-4-yl)oxy)phenyl)pyrrolidin-1-yl)-N—(N-methyl-N-(thiazol-2-yl)sulfamoyl)imidazo[1,2-a]pyridine-3-carboxamide]
≤ 50 | CN(c1ccccn1)S(=O)(=O)NC(=O)c1cnc2ccc(N3C[C@@H](F)C[C@@H]3c3cc(F)ccc3O[C@@H]3CCOC3)cn12 [Example 103, 6-((2R,4S)-4-fluoro-2-(5-fluoro-2-(((R)-tetrahydrofuran-3-yl)oxy)phenyl)pyrrolidin-1-yl)-N—(N-methyl-N-(pyridin-2-yl)sulfamoyl)imidazo[1,2-a]pyridine-3-carboxamide]
≤ 50 | CN(CC(C)(C)F)S(=O)(=O)NC(=O)c1cnc2ccc(N3CCC[C@@H]3c3cc(F)ccc3F)cn12 [Example 42, (R)-6-(2-(2,5-difluorophenyl)pyrrolidin-1-yl)-N-(N-(2-fluoro-2-methylpropyl)-N-methylsulfamoyl)imidazo[1,2-a] pyridine-3-carboxamide]
≤ 50 | CC1(S(=O)(=O)NC(=O)c2cnc3ccc(N4CCCCC4c4cc(F)ccc4F)cn23)CC1 (single isomer, unassigned) [Example 69, 6-(2-(2,5-difluorophenyl)piperidin-1-yl)-N-((1-methylcyclo-propyl)sulfonyl)imidazo[1,2-a]pyridine-3-carboxamide]
≤ 50 | COCCN(C)S(=O)(=O)NC(=O)c1cnc2ccc(N3CCC[C@@H]3c3cc(F)ccc3O[C@@H]3CCOC3)cn12 [Example 105, 6-((R)-2-(5-fluoro-2-(((R)-tetrahydrofuran-3-yl)oxy)phenyl)pyrrolidin-1-yl)-N—(N-(2-methoxyethyl)-N-methylsulfamoyl)imidazo[1,2-a]pyridine-3-carboxamide]
≤ 50 | CCN(C)S(=O)(=O)NC(=O)c1cnc2ccc(N3C[C@@H](F)C[C@@H]3c3cc(F)ccc3O[C@@H]3CCOC3)cn12 [Example 60, N-(N-ethyl-N-methylsulfamoyl)-6-((2R,4S)-4-fluoro-2-(5-fluoro-2-(((R)-tetrahydrofuran-3-yl)oxy)phenyl)pyrrolidin-1-yl)imidazo[1,2-a]pyridine-3-carboxamide]
≤ 50 | CN(CCF)S(=O)(=O)NC(=O)c1cnc2ccc(N3C[C@@H](F)C[C@@H]3c3cc(F)ccc3O[C@@H]3CCOC3)cn12 [Example 62, 6-((2R,4S)-4-fluoro-2-(5-fluoro-2-(((R)-tetrahydrofuran-3-yl)oxy)phenyl)pyrrolidin-1-yl)-N-(N-(2-fluoroethyl)-N-methylsulfamoyl)imidazo[1,2-a]pyridine-3-carboxamide]
≤ 50 | CCCN(C)S(=O)(=O)NC(=O)c1cnc2ccc(N3CCC[C@@H]3c3cc(F)ccc3F)cn12 [Example 37, (R)-6-(2-(2,5-difluorophenyl)pyrrolidin-1-yl)-N-(N-methyl-N-propylsulfamoyl)imidazo[1,2-a]pyridine-3-carboxamide]
≤ 50 | CN(C)S(=O)(=O)NC(=O)c1cnc2ccc(N3CCC[C@@H]3c3cc(F)ccc3O[C@@H]3CCOC3)cn12 [Example 106, N—(N,N-dimethylsulfamoyl)-6-((R)-2-(5-fluoro-2-(((R)-tetrahydrofuran-3-yl)oxy)phenyl)pyrrolidin-1-yl)imidazo[1,2-a]pyridine-3-carboxamide]
≤ 50 | CN(c1ccn(C)n1)S(=O)(=O)NC(=O)c1cnc2ccc(N3CCC[C@@H]3c3cc(F)ccc3F)cn12 [Example 90, (R)-6-(2-(2,5-difluorophenyl)pyrrolidin-1-yl)-N—(N-methyl-N-(1-methyl-1H-pyrazol-3-yl)sulfamoyl)imidazo[1,2-a]pyridine-3-carboxamide]
≤ 50 | CN(c1nccs1)S(=O)(=O)NC(=O)c1cnc2ccc(N3C[C@@H](F)C[C@@H]3c3cc(F)ccc3O[C@@H]3CCOC3)cn12 [Example 77, 6-((2R,4S)-4-fluoro-2-(5-fluoro-2-(((R)-tetrahydrofuran-3-yl)oxy)phenyl)pyrrolidin-1-yl)-N—(N-methyl-N-(thiazol-2-yl)sulfamoyl)imidazo[1,2-a]pyridine-3-carboxamide]
≤ 50 | CN(c1nncs1)S(=O)(=O)NC(=O)c1cnc2ccc(N3CCC[C@@H]3c3cc(F)ccc3OC3CCOCC3)cn12 [Example 86, (R)-6-(2-(5-fluoro-2-((tetrahydro-2H-pyran-4-yl)oxy)phenyl)pyrrolidin-1-yl)-N—(N-methyl-N-(1,3,4-thiadiazol-2-yl)sulfamoyl)imidazo[1,2-a]pyridine-3-carboxamide]
≤ 50 | CCN(C)S(=O)(=O)NC(=O)c1cnc2ccc(N3CCC[C@@H]3c3cc(F)ccc3OC)cn12 [Example 55, (R)-N-(N-ethyl-N-methylsulfamoyl)-6-(2-(5-fluoro-2-methoxyphenyl)pyrrolidin-1-yl)imidazo[1,2-a]pyridine-3-carboxamide]
≤ 50 | CN(c1ccn(C)n1)S(=O)(=O)NC(=O)c1cnc2ccc(N3C[C@@H](F)C[C@@H]3c3cc(F)ccc3OC3CCOCC3)cn12 [Example 96, 6-((2R,4S)-4-fluoro-2-(5-fluoro-2-((tetrahydro-2H-pyran-4-yl)oxy)phenyl)pyrrolidin-1-yl)-N—(N-methyl-N-(1-methyl-1H-pyrazol-3-yl)sulfamoyl)imidazo[1,2-a]pyridine-3-carboxamide]
100 to 500 | CC(C)(C)S(=O)(=O)NC(=O)c1cnc2ccc(N3CCC[C@@H]3c3cc(F)ccc3OC3CCOCC3)cn12 [Example 79, (R)—N-(tert-butylsulfonyl)-6-(2-(5-fluoro-2-((tetrahydro-2H-pyran-4-yl)oxy)phenyl)pyrrolidin-1-yl)imidazo[1,2-a]pyridine-3-carboxamide]
≤ 50 | CN(c1ccccn1)S(=O)(=O)NC(=O)c1cnc2ccc(N3CCC[C@@H]3c3cc(F)ccc3OC3CCOCC3)cn12 [Example 84, (R)-6-(2-(5-fluoro-2-((tetrahydro-2H-pyran-4-yl)oxy)phenyl)pyrrolidin-1-yl)-N—(N-methyl-N-(pyridin-2-yl)sulfamoyl)imidazo[1,2-a]pyridine-3-carboxamide]
50 to 100 | CC1(S(=O)(=O)NC(=O)c2cnc3ccc(N4CCC[C@@H]4c4cc(F)ccc4F)cn23)CC1 [Example 32, (R)-6-(2-(2,5-difluorophenyl)pyrrolidin-1-yl)-N-((1-methylcyclopropyl)sulfonyl)imidazo[1,2-a]pyridine-3-carboxamide]
100 to 500 | O=C(NC1CCOCC1)c1cnc2ccc(N3CCC[C@@H]3c3cc(F)ccc3F)cn12 [Example 30, (R)-6-(2-(2,5-difluorophenyl)pyrrolidin-1-yl)-N-(tetrahydro-2H-pyran-4-yl)imidazo[1,2-a]pyridine-3-carboxamide]
≤ 50 | Cc1nnc(N(C)S(=O)(=O)NC(=O)c2cnc3ccc(N4C[C@@H](F)C[C@@H]4c4cc(F)ccc4O[C@@H]4CCOC4)cn23)s1 [Example 93, 6-((2R,4S)-4-fluoro-2-(5-fluoro-2-(((R)-tetrahydrofuran-3-yl)oxy)phenyl)pyrrolidin-1-yl)-N—(N-methyl-N-(5-methyl-1,3,4-thiadiazol-2-yl)sulfamoyl)imidazo[1,2-a]pyridine-3-carboxamide]
≤ 50 | CN(c1cccnc1)S(=O)(=O)NC(=O)c1cnc2ccc(N3CCC[C@@H]3c3cc(F)ccc3F)cn12 [Example 43, (R)-6-(2-(2,5-difluorophenyl)pyrrolidin-1-yl)-N-(N-methyl-N-(pyridin-3-yl)sulfamoyl)imidazo[1,2-a]pyridine-3-carboxamide]
50 to 100 | O=C(NS(=O)(=O)c1ccc(-n2ccnc2)nc1)c1cnc2ccc(N3CCC[C@@H]3c3cc(F)ccc3F)cn12 [Example 46, (R)-N-((6-(1H-imidazol-1-yl)pyridin-3-yl)sulfonyl)-6-(2-(2,5-difluorophenyl)pyrrolidin-1-yl)imidazo[1,2-a]pyridine-3-carboxamide]

same assay, conditions: 5 ng TrkA, 500 μM ATP, values given as bins, read-out: TrkA inhibitory activity in-vitro IC50

IC50 [nM] | Structure (SMILES)
1000 to 10000 | CN(C)C(=O)Nc1cnc2ccc(N3CCCC3c3cc(F)ccc3F)cn12 (stereo not shown) [Example 11, 3-(6-(2-(2,5-difluorophenyl)pyrrolidin-1-yl)imidazo[1,2-a]pyridin-3-yl)-1,1-dimethylurea]
